What follows are compounds tested against T1, human CCR10 (Homo sapiens, UniProt P46092) (assay: Calcium assay of human CCR10 (inhibition of CTACK-induced increase in intracellular calcium ion concentration in hCCR10G16 cells)). Settings: test compound 100 nmol/L; human recombinant CTACK; hCCR10G16 cells (KJMGER8/Namalwa-derived, Gα16 co-expressed); FLIPR or FDSS; read-out: Inhibitory rate (%) for an increase in calcium ion concentration.
T1 construct: expressed in transfected cells; host or cells: KJMGER8 cell (cell line derived from Namalwa cell); expression induced with 10 nmol/L β-estradiol
T1 sequence (P46092 1-362): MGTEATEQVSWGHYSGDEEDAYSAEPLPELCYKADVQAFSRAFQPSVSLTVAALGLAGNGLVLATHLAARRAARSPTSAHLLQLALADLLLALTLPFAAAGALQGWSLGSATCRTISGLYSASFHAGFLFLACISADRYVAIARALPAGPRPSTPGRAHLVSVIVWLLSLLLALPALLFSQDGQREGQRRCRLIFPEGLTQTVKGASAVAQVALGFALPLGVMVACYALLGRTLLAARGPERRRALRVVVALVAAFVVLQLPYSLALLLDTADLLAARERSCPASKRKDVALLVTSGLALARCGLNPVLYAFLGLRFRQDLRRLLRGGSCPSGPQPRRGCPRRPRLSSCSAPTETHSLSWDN
Format: cell-based
In short: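 KJMGER8-derived hCCR10G16 cells (human CCR10 plus Gα16, expression induced 24 h with 10 nmol/L β-estradiol) were dye-loaded and preincubated with compound for 30 min at 37 °C, then stimulated with CTACK (300 nmol/L stock). Calcium flux over ~5 min (max−min fluorescence) gave percent inhibition versus DMSO control.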

First: Cc1cc(F)ccc1Nc1c(C(=O)N2CCC(c3ccccc3)CC2)cnc2c(S(=O)(=O)NS(C)(=O)=O)cnn12 [a-71, 7-(4-Fluoro-2-methylphenylamino)-N-methylsulfonyl-6-(4-phenylpiperidine-1-carbonyl)pyrazolo[1,5-a]pyrimidine-3-sulfonamide]
Second: CCNC(=S)NS(=O)(=O)c1cnn2c(Nc3ccc(F)cc3C)c(C(=O)N3CCC(c4ccccc4)CC3)cnc12 [a-69, N-Ethylcarbamothioyl-7-(4-fluoro-2-methylphenylamino)-6-(4-phenylpiperidine-1-carbonyl)pyrazolo[1,5-a]pyrimidine-3-sulfonamide]
The inhibition at 0.1 µM of the first is higher: 88.8% for the first, 81.8% for the second.

`CCC(=O)NS(=O)(=O)c1cnn2c(Nc3cc(C)c(F)cc3Cl)c(C(=O)N3CCC(c4ccc(F)cc4)CC3)cnc12` [a-40, N-{7-(2-Chloro-4-fluoro-5-methylphenylamino)-6-[4-(4-fluorophenyl)piperidine-1-carbonyl]pyrazolo[1,5-a]pyrimidin-3-ylsulfonyl}propionamide] was tested, and the inhibition at 0.1 µM was > 100%.
